# Experimental data: the NIST ThermoML archive (doi:10.1016/j.fluid.2015.07.036)
# Numbers after ± are expanded uncertainties.
# Conditions: for mass density: 100 kPa, Liquid, single sinker densimeter
smiles,measurement,setting,value
CCCC[N+]1(C)CCCC1.N#CC(=C=[N-])C#N [1-butyl-1-methylpyrrolidinium tricyanomethanide],mass density,263.25 K,1028.92 ± 0.88 kg/m3
same,surface tension liquid-gas,"263.32 K, Ring tensiometer",52.96 ± 0.88 mN/m
same,surface tension liquid-gas,"267.79 K, Ring tensiometer",52.64 ± 0.88 mN/m
same,mass density,268.05 K,1026.15 ± 0.88 kg/m3
same,surface tension liquid-gas,"273.16 K, Ring tensiometer",52.22 ± 0.87 mN/m
same,mass density,274.1 K,1022.18 ± 0.88 kg/m3
same,surface tension liquid-gas,"278.42 K, Ring tensiometer",52.03 ± 0.87 mN/m
same,mass density,278.48 K,1019.29 ± 0.88 kg/m3
same,surface tension liquid-gas,"283.38 K, Ring tensiometer",51.73 ± 0.87 mN/m
same,surface tension liquid-gas,"283.38 K, wilhelmy plate method",51.36 ± 0.43 mN/m
same,mass density,283.44 K,1015.85 ± 0.88 kg/m3
same,surface tension liquid-gas,"288.45 K, wilhelmy plate method",50.96 ± 0.43 mN/m
same,surface tension liquid-gas,"288.46 K, Ring tensiometer",51.49 ± 0.86 mN/m
same,mass density,288.48 K,1012.68 ± 0.88 kg/m3
same,surface tension liquid-gas,"292.95 K, Ring tensiometer",51.08 ± 0.86 mN/m
same,surface tension liquid-gas,"292.96 K, wilhelmy plate method",50.68 ± 0.43 mN/m
same,mass density,292.96 K,1010.28 ± 0.88 kg/m3
same,surface tension liquid-gas,"298.26 K, Ring tensiometer",50.33 ± 0.85 mN/m
same,mass density,298.28 K,1006.87 ± 0.88 kg/m3
same,surface tension liquid-gas,"298.36 K, wilhelmy plate method",50.23 ± 0.43 mN/m
same,surface tension liquid-gas,"303.17 K, Ring tensiometer",49.82 ± 0.85 mN/m
same,surface tension liquid-gas,"303.2 K, wilhelmy plate method",50.1 ± 0.42 mN/m
same,mass density,303.21 K,1003.94 ± 0.88 kg/m3
same,surface tension liquid-gas,"308.03 K, wilhelmy plate method",49.59 ± 0.42 mN/m
same,surface tension liquid-gas,"308.05 K, Ring tensiometer",49.88 ± 0.85 mN/m
same,mass density,308.06 K,1000.78 ± 0.88 kg/m3
same,surface tension liquid-gas,"313.16 K, Ring tensiometer",49.27 ± 0.84 mN/m
same,mass density,313.19 K,997.8 ± 0.88 kg/m3
same,surface tension liquid-gas,"313.2 K, wilhelmy plate method",48.94 ± 0.42 mN/m
same,surface tension liquid-gas,"317.89 K, Ring tensiometer",48.85 ± 0.84 mN/m
same,mass density,317.91 K,995.05 ± 0.88 kg/m3
same,surface tension liquid-gas,"317.94 K, wilhelmy plate method",48.74 ± 0.42 mN/m
same,surface tension liquid-gas,"323.16 K, Ring tensiometer",48.36 ± 0.83 mN/m
same,surface tension liquid-gas,"323.16 K, wilhelmy plate method",48.3 ± 0.42 mN/m
same,mass density,323.17 K,991.69 ± 0.88 kg/m3
same,surface tension liquid-gas,"328.06 K, wilhelmy plate method",47.88 ± 0.42 mN/m
same,surface tension liquid-gas,"328.22 K, Ring tensiometer",48.2 ± 0.83 mN/m
same,mass density,328.28 K,988.81 ± 0.88 kg/m3
same,surface tension liquid-gas,"333.03 K, wilhelmy plate method",47.55 ± 0.41 mN/m
same,surface tension liquid-gas,"333.06 K, Ring tensiometer",47.81 ± 0.83 mN/m
same,mass density,333.1 K,985.27 ± 0.88 kg/m3
same,surface tension liquid-gas,"337.77 K, wilhelmy plate method",47.21 ± 0.41 mN/m
same,mass density,337.77 K,982.59 ± 0.88 kg/m3
same,surface tension liquid-gas,"337.78 K, Ring tensiometer",47.44 ± 0.83 mN/m
same,mass density,343.16 K,979.77 ± 0.88 kg/m3
same,surface tension liquid-gas,"343.45 K, wilhelmy plate method",46.74 ± 0.41 mN/m
same,surface tension liquid-gas,"343.47 K, Ring tensiometer",47.14 ± 0.82 mN/m
same,surface tension liquid-gas,"347.24 K, Ring tensiometer",46.8 ± 0.82 mN/m
same,mass density,347.27 K,977.15 ± 0.88 kg/m3
same,surface tension liquid-gas,"347.78 K, wilhelmy plate method",46.41 ± 0.41 mN/m
same,mass density,353.46 K,973.98 ± 0.88 kg/m3
same,surface tension liquid-gas,"353.48 K, Ring tensiometer",46.51 ± 0.82 mN/m
same,surface tension liquid-gas,"353.56 K, wilhelmy plate method",46.01 ± 0.41 mN/m
same,mass density,358.07 K,970.73 ± 0.88 kg/m3
same,surface tension liquid-gas,"358.13 K, Ring tensiometer",46.25 ± 0.81 mN/m
same,surface tension liquid-gas,"358.24 K, wilhelmy plate method",45.64 ± 0.41 mN/m
same,mass density,364.38 K,967.59 ± 0.88 kg/m3
same,surface tension liquid-gas,"364.65 K, Ring tensiometer",45.8 ± 0.81 mN/m
same,surface tension liquid-gas,"364.77 K, wilhelmy plate method",45.17 ± 0.4 mN/m
CCn1cc[n+](C)c1.N#C[C-](C#N)C#N [1-ethyl-3-methyl-1H-imidazolium tricyanomethanide],mass density,262.68 K,1106.12 ± 0.68 kg/m3
same,mass density,268.65 K,1101.93 ± 0.68 kg/m3
same,mass density,273.46 K,1098.21 ± 0.68 kg/m3
same,mass density,278.14 K,1095.15 ± 0.68 kg/m3
same,surface tension liquid-gas,"283.22 K, wilhelmy plate method",50.62 ± 0.23 mN/m
same,surface tension liquid-gas,"283.25 K, Ring tensiometer",50.71 ± 0.74 mN/m
same,mass density,283.27 K,1091.23 ± 0.68 kg/m3
same,surface tension liquid-gas,"288.01 K, wilhelmy plate method",50.33 ± 0.23 mN/m
same,surface tension liquid-gas,"288.03 K, Ring tensiometer",50.29 ± 0.74 mN/m
same,mass density,288.08 K,1088.11 ± 0.68 kg/m3
same,mass density,293.16 K,1084.64 ± 0.68 kg/m3
same,surface tension liquid-gas,"293.17 K, Ring tensiometer",49.61 ± 0.73 mN/m
same,surface tension liquid-gas,"293.19 K, wilhelmy plate method",49.74 ± 0.23 mN/m
same,surface tension liquid-gas,"298.13 K, Ring tensiometer",49.45 ± 0.73 mN/m
same,surface tension liquid-gas,"298.15 K, wilhelmy plate method",49.4 ± 0.23 mN/m
same,mass density,298.19 K,1081 ± 0.68 kg/m3
same,surface tension liquid-gas,"303.06 K, Ring tensiometer",48.87 ± 0.72 mN/m
same,surface tension liquid-gas,"303.07 K, wilhelmy plate method",48.89 ± 0.22 mN/m
same,mass density,303.27 K,1077.46 ± 0.68 kg/m3
same,surface tension liquid-gas,"308.18 K, Ring tensiometer",48.37 ± 0.72 mN/m
same,surface tension liquid-gas,"308.19 K, wilhelmy plate method",48.42 ± 0.22 mN/m
same,mass density,308.21 K,1073.93 ± 0.68 kg/m3
same,surface tension liquid-gas,"313.19 K, wilhelmy plate method",48.06 ± 0.22 mN/m
same,mass density,313.21 K,1070.64 ± 0.68 kg/m3
same,surface tension liquid-gas,"313.27 K, Ring tensiometer",47.99 ± 0.71 mN/m
same,surface tension liquid-gas,"318.16 K, wilhelmy plate method",47.48 ± 0.22 mN/m
same,surface tension liquid-gas,"318.18 K, Ring tensiometer",47.44 ± 0.71 mN/m
same,mass density,318.2 K,1067.14 ± 0.68 kg/m3
same,surface tension liquid-gas,"323.26 K, Ring tensiometer",46.86 ± 0.7 mN/m
same,surface tension liquid-gas,"323.3 K, wilhelmy plate method",47.14 ± 0.22 mN/m
same,mass density,323.32 K,1063.82 ± 0.68 kg/m3
same,surface tension liquid-gas,"327.9 K, wilhelmy plate method",46.7 ± 0.22 mN/m
same,mass density,327.9 K,1060.39 ± 0.68 kg/m3
same,surface tension liquid-gas,"328.44 K, Ring tensiometer",46.65 ± 0.7 mN/m
same,mass density,333.05 K,1057.29 ± 0.68 kg/m3
same,surface tension liquid-gas,"333.28 K, Ring tensiometer",46.24 ± 0.7 mN/m
same,surface tension liquid-gas,"333.4 K, wilhelmy plate method",46.16 ± 0.22 mN/m
same,mass density,338.17 K,1053.46 ± 0.68 kg/m3
same,surface tension liquid-gas,"338.24 K, wilhelmy plate method",45.83 ± 0.22 mN/m
same,surface tension liquid-gas,"338.25 K, Ring tensiometer",45.72 ± 0.69 mN/m
same,mass density,342.95 K,1050.5 ± 0.68 kg/m3
same,surface tension liquid-gas,"343.18 K, Ring tensiometer",45.39 ± 0.69 mN/m
same,surface tension liquid-gas,"343.21 K, wilhelmy plate method",45.31 ± 0.22 mN/m
same,surface tension liquid-gas,"347.97 K, Ring tensiometer",44.69 ± 0.69 mN/m
same,surface tension liquid-gas,"347.98 K, wilhelmy plate method",44.86 ± 0.22 mN/m
same,mass density,348.05 K,1047.15 ± 0.68 kg/m3
same,mass density,352.71 K,1043.86 ± 0.68 kg/m3
same,surface tension liquid-gas,"352.81 K, Ring tensiometer",44.55 ± 0.68 mN/m
same,surface tension liquid-gas,"352.89 K, wilhelmy plate method",44.44 ± 0.22 mN/m
same,mass density,358.12 K,1040.23 ± 0.68 kg/m3
same,surface tension liquid-gas,"358.17 K, Ring tensiometer",44.06 ± 0.68 mN/m
same,surface tension liquid-gas,"358.44 K, wilhelmy plate method",43.93 ± 0.22 mN/m
same,mass density,364.84 K,1035.96 ± 0.68 kg/m3
same,surface tension liquid-gas,"365.18 K, Ring tensiometer",43.3 ± 0.67 mN/m
same,surface tension liquid-gas,"365.23 K, wilhelmy plate method",43.29 ± 0.22 mN/m
CCCC[n+]1ccc(C)cc1.N#CC(=C=[N-])C#N [1-butyl-4-methylpyridinium tricyanomethanide],mass density,263.45 K,1059.1 ± 1.1 kg/m3
same,mass density,267.95 K,1056.28 ± 1.1 kg/m3
same,mass density,273.54 K,1052.57 ± 1.1 kg/m3
same,mass density,278.65 K,1048.92 ± 1.1 kg/m3
same,mass density,283.37 K,1045.67 ± 1.1 kg/m3
same,surface tension liquid-gas,"288.6 K, Ring tensiometer",49.8 ± 0.82 mN/m
same,mass density,288.63 K,1042.4 ± 1.1 kg/m3
same,mass density,293.52 K,1038.75 ± 1.1 kg/m3
same,surface tension liquid-gas,"293.53 K, Ring tensiometer",49.54 ± 0.82 mN/m
same,surface tension liquid-gas,"293.53 K, wilhelmy plate method",49.49 ± 0.27 mN/m
same,surface tension liquid-gas,"298.24 K, wilhelmy plate method",49.18 ± 0.26 mN/m
same,surface tension liquid-gas,"298.25 K, Ring tensiometer",49.45 ± 0.82 mN/m
same,mass density,298.25 K,1035.8 ± 1.1 kg/m3
same,surface tension liquid-gas,"303.01 K, wilhelmy plate method",48.76 ± 0.26 mN/m
same,surface tension liquid-gas,"303.02 K, Ring tensiometer",48.8 ± 0.82 mN/m
same,mass density,303.03 K,1032.82 ± 1.1 kg/m3
same,surface tension liquid-gas,"307.98 K, Ring tensiometer",48.37 ± 0.81 mN/m
same,surface tension liquid-gas,"308.01 K, wilhelmy plate method",48.35 ± 0.26 mN/m
same,mass density,308.01 K,1029.21 ± 1.1 kg/m3
same,mass density,313.21 K,1025.76 ± 1.1 kg/m3
same,surface tension liquid-gas,"313.22 K, Ring tensiometer",48.23 ± 0.81 mN/m
same,surface tension liquid-gas,"313.27 K, wilhelmy plate method",47.89 ± 0.26 mN/m
same,surface tension liquid-gas,"318.3 K, Ring tensiometer",48.03 ± 0.81 mN/m
same,surface tension liquid-gas,"318.35 K, wilhelmy plate method",47.44 ± 0.26 mN/m
same,mass density,318.36 K,1022.75 ± 1.1 kg/m3
same,surface tension liquid-gas,"323.38 K, wilhelmy plate method",47.12 ± 0.26 mN/m
same,mass density,323.38 K,1019.48 ± 1.1 kg/m3
same,surface tension liquid-gas,"323.41 K, Ring tensiometer",47.28 ± 0.8 mN/m
same,surface tension liquid-gas,"327.86 K, Ring tensiometer",47.1 ± 0.8 mN/m
same,mass density,327.88 K,1016.44 ± 1.1 kg/m3
same,surface tension liquid-gas,"327.98 K, wilhelmy plate method",46.65 ± 0.25 mN/m
same,surface tension liquid-gas,"332.9 K, wilhelmy plate method",46.21 ± 0.25 mN/m
same,surface tension liquid-gas,"332.94 K, Ring tensiometer",46.55 ± 0.8 mN/m
same,mass density,332.98 K,1013.51 ± 1.1 kg/m3
same,surface tension liquid-gas,"337.57 K, Ring tensiometer",46.06 ± 0.79 mN/m
same,mass density,337.59 K,1010.37 ± 1.1 kg/m3
same,surface tension liquid-gas,"337.68 K, wilhelmy plate method",45.88 ± 0.25 mN/m
same,mass density,342.27 K,1007.38 ± 1.1 kg/m3
same,surface tension liquid-gas,"344.17 K, wilhelmy plate method",45.37 ± 0.25 mN/m
same,surface tension liquid-gas,"344.19 K, Ring tensiometer",45.74 ± 0.79 mN/m
same,surface tension liquid-gas,"348.14 K, Ring tensiometer",45.27 ± 0.78 mN/m
same,surface tension liquid-gas,"348.15 K, wilhelmy plate method",45.03 ± 0.25 mN/m
same,mass density,348.16 K,1003.72 ± 1.1 kg/m3
same,surface tension liquid-gas,"353.35 K, Ring tensiometer",44.97 ± 0.78 mN/m
same,mass density,353.42 K,1000.42 ± 1.1 kg/m3
same,surface tension liquid-gas,"353.43 K, wilhelmy plate method",44.52 ± 0.25 mN/m
same,mass density,358.02 K,997.29 ± 1.1 kg/m3
same,surface tension liquid-gas,"358.06 K, Ring tensiometer",44.65 ± 0.78 mN/m
same,surface tension liquid-gas,"358.09 K, wilhelmy plate method",44.17 ± 0.25 mN/m
same,mass density,363.31 K,993.79 ± 1.1 kg/m3
same,surface tension liquid-gas,"363.37 K, Ring tensiometer",44.18 ± 0.78 mN/m
same,surface tension liquid-gas,"363.55 K, wilhelmy plate method",43.66 ± 0.24 mN/m
